Experimental data taken from US12090164B2, “Genotype-agnostic rescue of cystic fibrosis with small molecule bicarbonate channels” (The Board of Trustees of the University of Illinois, priority 2017, dated 2024).
Entries after “also recorded” stand apart in the source; their conditions may differ.

Assays:
Type in all cases: cell-based, human
[1] = system: CuFi-1 epithelial monolayers; assay: pH-stat titration of apical alkalinization; details: AmB 0.5, 1, 2 μM
Protocol: Large diameter NuLi and CuFi-1 cultured epithelia were used for this experiment (4.67 cm^2). These cultures were mounted in a dual-channel Ussing chamber (Warner U2500) using the culture cup insert for Transwell adapter, 24 mm (U9924T-24). The membranes were bathed at 37° C. on the apical side with a buffer-free solution (140 mM NaCl, 2 mM KCl, 2 mM CaCl2), and 1 mM MgCl2, 15 mM dextrose, gassed with air) and on the basolateral side with either a HCO3^− buffer (120 mM NaCl, 25 mM NaHCO3, 5 mM KCl, 2 mM CaC2, 1.2 mM MgCl2, 13.75 NaH2PO4, 5.6 mM dextrose, pH adjusted to 7.0) or a HCO3^−-free buffer (140 mM NaCl, 2 mM KCl, 2 mM CaCl2), 1 mM MgCl2, 10 mM HEPES, 5 mM dextrose, pH adjusted to 7.0). A microdiameter pH electrode (89231-590) and temperature probe (Radiometer Analytical T201 Temperature Sensor, E51M001) and titration burette attached to a Hach TIM856 NB pH/EP/Stat pH-STAT Titrator (R41T028) were inserted into the apical chamber. The basolateral chamber was covered with the chamber lid to prevent gas exchange. […]
The apical pH was titrated to a target pH of 6.0 using 1 mM HCl as titrant (min speed 0.25 mL/min, max speed 0.35 mL/min) (28, 57-59). Acid titration was measured over 20 minutes to establish a baseline value for the cultured epithelia […]. […] Acid titration was then measured over another 20 minutes to evaluate AmB-mediated pH change in the apical solution. […]

[2] = system: primary cultured airway epithelia derived from humans with CF; assay: ASL pH in primary cultured airway epithelia from CF donors
Protocol: Airway epithelial cells were obtained from human trachea and bronchi of CF and non-CF specimens obtained from the Iowa Donor Network, either as post-mortem specimens or from tissue deemed not fit for transplant. Studies were approved by the University of Iowa Institutional Review Board. After pronase enzymatic digestion, cells were seeded onto collagen-coated semi-permeable membranes (0.33-1.12 cm^2, Corning 3470 polyester, 3460 polyester, 3413 polycarbonate) and grown at an air-liquid interface (52). Airway epithelial cell cultures were analyzed after they had differentiated and at least 14 days post-seeding.
Small diameter NuLi, CuFi, and primary cultured epithelia were used for this experiment (0.33 cm^2). The ratiometric pH indicator SNARF-conjugated dextran (Molecular Probes) was used to measure ASL pH. SNARF powder was suspended via sonication in perfluorocarbon (FC-72, Sigma) and distributed onto the apical surface. ASL pH was measured 2 hr later (3, 4, 25). SNARF was excited at 488 nm and emission was recorded at 580 nm and 640 nm using a Zeiss LSM 800 microscope at 40× water immersion for cell line cultures and a Zeiss LSM 510 microscope for primary cultures. To generate a standard curve for pH determination, SNARF was dissolved in colorless pH standards and fluorescence ratios were converted to pH.
Agents tested in this assay were first lyophilized into powder and then suspended in the appropriate volume of perfluorocarbon (FC-72, Sigma) and sonicated for 1 minute to suspend. AmBisome should not be sonicated; instead, the fine powder was suspended by vortexing.
In all experiments, ASL pH of compound-treated epithelia was measured compared the results to vehicle-treated epithelia.
For apical AmB administration, cultured airway epithelia were incubated for 30 min-48 hrs at 37° C. before measurement of ASL pH. For AmB-cholesterol complex and C35deOAmB administration, cultured airway epithelia were incubated for 48 hrs at 37° C. before measurement of ASL pH. To test the effect of […] ATPase inhibition, AmB was administered 47 hours prior to 10 mM ouabain addition, and cultured airway epithelia were incubated for an additional 1 hr at 37° C. before measurement of ASL pH. For 10 μM ivacaftor/10 μM forskolin administration, cultured airway epithelia were incubated for 2 hrs at 37° C. before measurement of ASL pH (25). For basolateral AmB administration, a 2 mM stock of AmB in DMSO was diluted 1000-fold to a final concentration of 2 μM in USG media. The basolateral media of cultured airway epithelia was replaced with the AmB-containing USG media and incubated for 48 hrs at 37° C. before measurement of ASL pH.

[3] = system: ASL of primary CF epithelia; Staphylococcus aureus killed; assay: ASL antibacterial activity (S. aureus-coated gold grids); details: 2 μM, 48 h
Protocol: Staphylococcus aureus-coated gold grids were used to measure antibacterial activity of airway epithelial cultures (3, 4). Small diameter primary cultured epithelia were used for this experiment (0.33 cm^2). Bacteria-coated gold TEM grids were placed onto the apical surface of airway epithelia for 1 min after 48 hours of perfluorocarbon (FC-72, Sigma), 2 μM AmB, or 2 μM C35deOAmB treatment. As controls, bacteria-coated grids were also placed in saline or AmB in FC-72 laid over saline to simulate the administration method for 1 minute. After removal, bacteria on the grids were assessed for viability using Live/Dead BacLight Bacterial Viability assay (Invitrogen). Viability was determined in 4-6 fields to determine the percentages of dead bacteria.

C[C@@H]1[C@H](O)[C@@H](C)/C=C/C=C/C=C/C=C/C=C/C=C/C=C/[C@H](O[C@@H]2O[C@H](C)[C@@H](O)[C@H](N)[C@@H]2O)C[C@@H]2O[C@](O)(C[C@@H](O)C[C@@H](O)[C@H](O)CC[C@@H](O)C[C@@H](O)CC(=O)O[C@H]1C)C[C@H](O)[C@H]2C(=O)O [AmB, amphotericin B]
rate of apical alkalinization, bicarbonate free basolateral buffer ([1]; HCO3−-free buffer): no change in rate of apical alkalinization was observed with any tested concentration of AmB; also recorded: not in the absence of basolateral bicarbonate | rate of apical chamber alkalinization, basolateral bicarbonate present ([1]; basolateral bicarbonate 25 mM): increased the rate of apical chamber alkalization of CuFi-1 epithelia in a dose-dependent fashion; also recorded: dose-dependent increase in ASL pH | ASL pH, apical addition ([2]; 9 donors, 2 μM, 48 h): caused an increase in ASL pH across a wide range of different genotypes; also recorded: increased ASL pH; also recorded: restores ASL pH | ASL pH, basolateral addition of AmB ([2]; AmB 2 μM basolateral, 48 h): did not increase ASL pH | average increase in ASL pH ([2]; apical AmB 2 μM): 0.2 pH units | time for which the increase in ASL pH is sustained ([2]; apical AmB 2 μM): at least 48 hours | ASL antibacterial activity (% of S. aureus killed after exposure to ASL) [3]: increased antibacterial activity for a diverse range of patient genotypes; also recorded: nearly doubled ASL bacterial killing; also recorded: restores ASL pH and antibacterial activity
